{
  "source": "patent US10363239B2",
  "about": "“Method for inhibiting growth of cancer cells” (Pain Therapeutics, Inc., priority 2013, dated 2019)",
  "key": {"[1]": {"tested_on": "pS2152FLNA, FLNA-associated PTEN and PP2A in pancreatic cancer MiaPaCa2 cells", "assay": "pS2152FLNA and FLNA-associated PTEN and PP2A in anti-FLNA immunoprecipitate (Western blotting)", "format": "cell-based, human", "details": "0.1-5 nM; 4 days", "protocol": "(§1) The effect of contact with Compound C0105 on the levels of pS^2152FLNA and FLNA-associated phosphatases, PTEN and PP2A subclasses was determined in MiaPaCa2 and HPECs. Cells were contacted with vehicle and 0.1-5 nM Compound C0105 for 4 days. Cells were washed, solubilized and the cell lysate derived was immunoprecipitated with anti-FLNA. The levels of […] and FLNA-associated phosphatases, PTEN and PP2A subclasses in the anti-FLNA immunoprecipitate were determined by Western blotting. The density of protein bands was quantified by densitometric scan. […] Data are expressed as mean±S.E.M. of ratios (FIGS. 27C, 27E and 27G) and percentage inhibition (FIGS. 27D, 27F and 27H). […] N=4. **p<0.05, *p<0.01 compared to vehicle (open bars). […]\n(§2) The cell lysates were diluted 5-fold with immunoprecipitation buffer and immunoprecipitated with anti-FLNA, -Akt, -mTOR and -ERK2 as described previously [Talbot et al., J Clin Inv 122(4):1-23 (2012); Wang et al., J Neurosci 32(29):9773-9784 (2012)]. The levels of FLNA linkages, activated phosphorylated Akt (pS^473 and pT^308), phosphorylated mTOR (pS^2448) and phosphorylated ERK2 (pY/pT) were determined in anti-FLNA, -Akt, -mTOR and -ERK2 immunoprecipitates by Western blotting with appropriate antibodies directed against PTEN, PP2A, K-RAS, ras-GAP (FLNA linkages), pS^473Akt, pT^308Akt, pS^2448mTOR and pY/pT ERK2 (activation of Akt, mTOR and ERK2)."}, "[2]": {"tested_on": "pS2152FLNA, FLNA-associated PTEN and PP2A in primary human pancreatic epithelial cells (HPEC)", "assay": "pS2152FLNA and FLNA-associated PTEN and PP2A in anti-FLNA immunoprecipitate (Western blotting)", "format": "cell-based", "details": "0.1-5 nM; 4 days", "protocol": "as §1, §2"}, "MiaPaCa2 cell implants": {"tested_on": "MiaPaCa2 cell implants", "assay": "Xenograft survival study", "format": "in vivo, Nu/Nu mice", "details": "100 mg/kg", "protocol": "FIGS. 34A and 34B illustrate Kaplan-Meier survival curves (FIG. 34A) and averaged tumor volumes (FIG. 34B) in a xenograft study in which MiaPaCa2 cells were implanted in Nu/Nu mice. […] FIG. 34B illustrates average tumor volumes (mm3) in mice treated with vehicle alone (black diamonds), gemcitabine (open squares), Compound C0105 at 10 mg/kg (black triangles) and Compound C0105 at 100 mg/kg (open diamonds).\nMice were monitored individually and the treatment effect was compared to each mouse's own original tumor on the treatment day 0. The endpoint of the study was a tumor volume of 1500 mm^3 or 45 days, whichever comes first. The animals were euthanized when the endpoint was reached. Responders were followed longer (survival study). The Table below illustrates the drug treatment administered to the mice.\nA third xenograft study was designed to measure survival rather than tumor volume at a designated time point."}, "[3]": {"tested_on": "FLNA-bound K-ras and ras-GAP in lung fibroblasts", "assay": "FLNA-bound K-ras and ras-GAP (immunoprecipitation, Western blotting)", "format": "cell-based, human", "protocol": "Thus, melanoma, two different pancreatic cancerous cell lines (MiaPaCa2 and BxPc3) and a glioblastoma cell line (U87) were treated with zero (vehicle), 0.1, 0.5, 1 and 5 nM Compound C0105 as previously discussed, and FLNA-bound K-ras and ras-GAP were immunoprecipitated, separated by Western blotting and the blot densities determined as discussed previously.\nTo study the effect of Compound C0105 on pS^2152FLNA levels, FLNA linkages to key regulators including protein phosphatases as well as activated Akt (pS^473-, pT^308-Akt), mTOR (pS^2442mTOR) and ERK (pY/pT-ERK) levels, the cancer and normal cells were cultured to approximately 90% confluency and treated with vehicle or varying concentrations of Compound C0105. […]\nas §2, with “ERK2). […]” for “ERK2).”"}, "melanoma cells": {"tested_on": "melanoma cells", "assay": "Cell proliferation by cell-cycling markers Ki67 and PCNA (Western blots)", "format": "cell-based, human", "details": "0.1-5 nM; 4 days", "protocol": "The effect of contact with Compound C0105 on cell proliferation was determined by the levels of cell-cycling markers: Ki67 and PCNA (proliferating cell nuclear antigen) using Western blots in human melanoma cells. Cells treated with vehicle and 0.1-5 nM C0105 for 4 days were collected, washed and solubilized (lysed). The resultant cell lysates were size-fractionated on SDS-PAGE and Western blotting to determine the levels of Ki67, PCNA and actin (loading control). The protein bands were quantified using densitometric scanning. […] N=4. *p<0.01 compared to vehicle (open bars).\nTo study the effect of Compound C0105 on PI3K activity, the cancer and primary normal cells were cultured to approximately 60-70% confluency, serum deprived for 4 hours, briefly washed with PBS and treated with vehicle or 0.1, 0.5, 1 or 5 nM Compound C0105 for 24 hours with in 0.1% FBS-containing culture medium. The cells were then washed with PBS, scraped off and collected by centrifugation. The cell pellets were sonicated in ice-cold immunoprecipitation buffer and protein concentrations measured by the Bradford method. […]\nImmunoreactivity was visualized by reaction in ECL Plus chemiluminescent reagent for exactly 5 minutes, followed by immediate exposure of the blot to X-ray film (Z & Z Medical). Bands at the relevant molecular masses of Ki67 and PCNA were quantified by densitometric scan. […]"}},
  "data": [
    {"smiles": "CN1CCC2(CC1)NCC(=O)N2Cc1ccccc1", "note": "[Compound C0105]", "values": [
      {"measurement": "FLNA-associated PTEN and PP2A levels", "setting": "[1]", "result": "increases FLNA-associated PTEN and PP2A levels"},
      {"measurement": "pS2152FLNA level", "setting": "[1]", "result": "reduces pS^2152FLNA"},
      {"measurement": "Phosphatase (PTEN, PP2A) associations with FLNA", "setting": "[2]", "result": "no effect"},
      {"measurement": "pS2152FLNA level", "setting": "[2]", "result": "no effect"},
      {"measurement": "Tumors shrunk to undetectable", "setting": "MiaPaCa2 cell implants", "result": "completely shrunk tumors to being undetectable in three high-dose (100 mg/kg) mice"},
      {"measurement": "Tumor shrinkage compared to mice receiving vehicle", "setting": "MiaPaCa2 cell implants; mouse found dead at 30 days", "result": "more than 90%"},
      {"measurement": "FLNA-associated K-ras and ras-GAP", "setting": "[3]", "result": "had no effect on fibroblasts"},
      {"measurement": "Cell proliferation (Ki67 and PCNA levels)", "setting": "melanoma cells", "result": "reduces cell proliferation"}
    ]}
  ]
}
